Each structure is given as a SMILES string.

The target of the experiment is T1, human TLR7 (Homo sapiens, UniProt Q9NYK1).
T1 sequence (Q9NYK1 27-1049): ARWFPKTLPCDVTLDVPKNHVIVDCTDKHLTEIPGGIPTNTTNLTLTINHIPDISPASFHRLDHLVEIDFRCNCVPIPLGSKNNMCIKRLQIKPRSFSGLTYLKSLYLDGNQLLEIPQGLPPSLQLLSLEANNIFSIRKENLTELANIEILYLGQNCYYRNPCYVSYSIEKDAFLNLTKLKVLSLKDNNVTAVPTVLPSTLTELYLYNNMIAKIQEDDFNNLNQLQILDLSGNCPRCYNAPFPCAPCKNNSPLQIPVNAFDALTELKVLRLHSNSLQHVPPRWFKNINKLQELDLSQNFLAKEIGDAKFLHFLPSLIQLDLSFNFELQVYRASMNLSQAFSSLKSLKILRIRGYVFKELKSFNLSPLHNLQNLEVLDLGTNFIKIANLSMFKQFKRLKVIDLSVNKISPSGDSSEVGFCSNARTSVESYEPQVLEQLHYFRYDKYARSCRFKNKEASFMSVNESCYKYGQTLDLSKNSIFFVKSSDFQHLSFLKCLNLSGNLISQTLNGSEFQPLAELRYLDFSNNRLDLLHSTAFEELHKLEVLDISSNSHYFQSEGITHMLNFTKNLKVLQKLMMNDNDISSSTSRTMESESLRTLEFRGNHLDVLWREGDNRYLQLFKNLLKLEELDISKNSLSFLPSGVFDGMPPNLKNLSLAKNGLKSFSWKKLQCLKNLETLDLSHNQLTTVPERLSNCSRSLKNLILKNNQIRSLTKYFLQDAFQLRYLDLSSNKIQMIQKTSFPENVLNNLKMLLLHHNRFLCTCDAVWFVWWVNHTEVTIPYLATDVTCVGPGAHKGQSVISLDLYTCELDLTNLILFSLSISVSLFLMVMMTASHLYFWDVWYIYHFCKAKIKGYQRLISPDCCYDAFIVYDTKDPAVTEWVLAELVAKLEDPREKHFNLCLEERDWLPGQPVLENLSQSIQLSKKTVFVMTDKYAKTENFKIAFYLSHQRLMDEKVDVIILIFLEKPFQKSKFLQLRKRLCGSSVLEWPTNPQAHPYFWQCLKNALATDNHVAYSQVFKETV
Briefly: HEK293-Blue-hTLR-7 cells assay. Type of experiment: cell-based. As to conditions: HEK293-Blue-hTLR7 cells, R848 stimulation, 20 hrs, SEAP reporter; read-out: HEK/hTLR7 IC50. A digest of the protocol: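 HEK293-Blue-hTLR7 cells (NF-κB/AP-1-driven SEAP reporter) incubated with serially diluted compound (1% DMSO final) and R848 agonist for 20 h at 37 °C. Supernatant SEAP measured with QUANTI-Blue (2 h, 37 °C) by absorbance at 620-655 nm; antagonism seen as reduced reporter.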

Consider `CO[C@@H]1CN(c2ccc3c(c2)CN2[C@H](C)CN(c4ccc(C#N)n5nccc45)C[C@H]32)C[C@H]1N` [Example 94, 4-[(4R,10bS)-8-[(3R,4R)-3-amino-4-methoxy-pyrrolidin-1-yl]-4-methyl-3,4,6,10b-tetrahydro-1H-pyrazino[2,1-a]isoindol-2-yl]pyrazolo[1,5-a]pyridine-7-carbonitrile], for which the IC50 amounted to 13.7 nM.

These data come from patent US12157746B2, “Tetrahydro-1H-pyrazino[2,1-a]isoindolylquinoline compounds for the treatment of autoimmune disease” (F. HOFFMANN-LA ROCHE AG, priority 2018, dated 2024).
